This is an account of results in publication PMC12693135, “Ocular Toxicity and Mechanistic Investigation for Berberine and Its Metabolite Berberrubine on Zebrafish” (Molecules, 2025).

SMILES strings stand for the structures.

The test system of data set [1] is human corneal epithelial (HCE-T) cell line. Kind of data set: MTT cytotoxicity assay on HCE-T cells. The class given is cell-based. As to the method: (§1) The human corneal epithelial cell line HCE-T (Cellosaurus accession: CVCL_1272, RRID: CVCL_1272, RCB: RCB2280) was purchased from Procell Life Science and Technology Co., Ltd. (Wuhan, China). […] were cultured in high-glucose Dulbecco’s Modified Eagle Medium (DMEM), which was purchased from Procell Life Science and Technology Co., Ltd. (Wuhan, China). The high-glucose DMEM was DMEM basic medium supplemented with 15% fetal bovine serum (Procell), 1% penicillin/streptomycin (Procell), 5 μg/mL insulin, and 10 ng/mL human epidermal growth factor (Procell).
(§2) HCE-T cells were seeded in 96-well plates (8 × 10^3 cells/well, 100 μL medium) and cultured overnight at 37 °C, 5% CO2 for adhesion. BBR or its metabolites at various concentrations (BBR and M3 at the concentrations of 31.25, 62.5, 125, 250 and 500 µM, M1 and M4 at the concentrations of 25, 50, 100, 200 and 400 µM) in 0.5% DMSO were added and incubated for 24 h, with 0.5% DMSO in culture medium as the vehicle control. Subsequently, 20 μL MTT (5 mg/mL) was added to each well and the cells were cultured at 37 °C for 4 h. Then, the culture medium was removed, and 150 μL DMSO was added to dissolve formazan crystals and the absorbance at 570 nm was measured on a Synergy H1 multifunctional microplate reader (Biotek, Winooski, VT, USA). The IC50 values of test compounds were calculated by Graphpad Prism 8.5 (GraphPad Software Co., San Diego, CA, USA).
Background: Tetrazolium assays rely on reduction of a dye to a coloured formazan, in cell work by metabolically active cells.

Data set [2] is described as follows: MTT cytotoxicity assay on HCE-T cells. The data set is classed as cell-based, human. The note with it: human, HCE-T human corneal epithelial cells; HCE-T cells, 24 h incubation. As to the method:
as §1, §2

Broadly, the IC50 is the concentration that gives 50% inhibition.

Consider `COc1ccc2cc3[n+](cc2c1OC)CCc1cc(O)c(O)cc1-3` [M3, demethyleneberberine], for which, in data set [1], the half-inhibitory concentration (IC50) was over 400 µM.

In the case of `COc1cc2c(cc1O)CC[n+]1cc3c(OC)c(OC)ccc3cc1-2` [M4, jatrorrhizine], the 50% inhibitory concentration (IC50) at 24 h in data set [2] was over 400 µM.
